{"source": "patent US20250092086A1", "about": "“CELASTROL SALTS, CRYSTALLINE FORMS, AND USES THEREOF” (ERX Pharmaceuticals Inc., priority 2022, published 2025)", "key": {"[1]": {"assay": "Solubility in water at 37° C.", "format": "physicochemical", "text": "This compound can be considered as very slightly soluble (<1 g/L)."}, "[2]": {"assay": "Hygroscopicity (DVS), water sorption/desorption at 37° C.", "format": "physicochemical", "details": "for Hysteresis with the final mass at 50% RH / Mass decrease as the RH was lowered to 0% / Mass increase as the RH was increased to 95% / Water uptake, water sorption/desorption isotherms: DVS, 37° C.; for DVS (hygroscopicity): water sorption/desorption isotherms at 37° C., 0-95% RH", "description": "The hygroscopicity experiments were carried out with a DVS Intrinsic from S.M.S. This technique is designed to accurately measure a sample's change in mass as it sorbs precisely controlled concentrations of water vapors in an air carrier gas. The method used for DVS experiments (at 37° C.) is summarized below. • Equilibrating 10 min at 50% RH • Decreasing to 0% RH in 60 min • Equilibrating 10 min at 0% RH • Increasing to 95% RH in 280 min • Equilibrating 10 min at 95% RH • Decreasing to 50% RH in 100 min • Equilibrating 20 min at 50% RH\n(§1) The hygroscopic experiments were carried out with a DVS Intrinsic from S.M.S. This technique is designed to accurately measure a sample's change in mass as it sorbs precisely controlled concentrations of water vapors in an air carrier gas. All the methods used for DVS experiments are summarized below. It should be noticed that the temperature and relative humidity (RH) are pre-set according to the initial temperature and RH.\n• Equilibrating 120 min at 50% RH • Decreasing to 0% RH in 60 min • Equilibrating 150 min at 0% RH • Increasing to 95% RH in 200 min • Equilibrating 360 min at 95% RH • Decreasing to 50% RH in 100 min • Equilibrating 150 min at 50% RH\nas §1, with “hygroscopicity” for “hygroscopic”, “below, and it” for “below. It”\nas §1, with “hygroscopicity” for “hygroscopic”"}, "[3]": {"assay": "XRPD under temperature and relative humidity", "format": "physicochemical", "details": "for XRPD under temperature: impact / new crystalline phase: 25 to 100° C., RH set at 30%; for XRPD under relative humidity: impact / new crystalline phase: RH 10 to 80-90% at 40° C.", "description": "Method 1: influence of temperature at ambient RH. RH was set at 30% in order to simulate a RH near from the ambient RH, and the temperature studied were 25-[…]-100° C.\nMethod 2: influence on RH at 40° C. The RH studied was at 10-30-80%.\nThese experiments studied the influence of temperature at ambient RH. RH was wet at 30% in order to simulate a RH near from the ambient RH, and the temperatures studied were 25-50-100° C.\nThese experiments studied the influence on RH at 40° C. The RH studied were 10-30-88%.\nUsing Method 1, the influence of temperature at ambient RH was studied. RH was set at 30% in order to simulate a RH near from the ambient RH, and the temperatures studied were 25-50-100° C. FIG. 24 provides the XRPD pattern representing the influence of temperature on Compound 1 Form I.\nUsing Method 2, the influence on RH at 40° C. was studied. The RH studied were 10-30-90%.\nUsing Method 1, the influence of temperature at ambient RH was studied. RH was set at 30% in order to simulate a RH near from the ambient RH. Temperature studied: 25-50-100° C.\nUsing Method 2, the influence on RH at 40° C. was studied at 10-30-90%."}, "[4]": {"details": "counter-ion, cited from earlier work; for pKa (B): basic function"}}, "note": "“Also recorded” adds a separate entry of the source. Where two headings read alike, the source gives them in different places."}
{"smiles": "CC1=C(O)C(=O)C=C2C1=CC=C1[C@@]2(C)CC[C@@]2(C)[C@@H]3C[C@](C)(C(=O)O)CC[C@]3(C)CC[C@]12C", "note": "[Compound 1, (2R,4aS,6aS,12bR,14aS,14bR)-10-hydroxy-2,4a,6a,9,12b,14a-hexamethyl-11-oxo-1,2,3,4,4a,5,6,6a,11,12b,13,14,14a,14b-tetradecahydropicene-2-carboxylic acid]", "values": [{"measurement": "Solubility in water at 37° C.", "setting": "[1]", "value": "below 1 g/L"}, {"measurement": "solubility", "setting": "[1]; 37 °C", "value": "< 1000", "unit": "µg/mL"}, {"measurement": "Solubility in water at 37° C.", "setting": "[1]; listed as Free compound", "value": "(s < 1 g/L)"}, {"measurement": "Hysteresis with the final mass at 50% RH", "setting": "[2]", "value": "~0.1", "unit": "wt-%"}, {"measurement": "Mass decrease as the RH was lowered to 0%", "setting": "[2]", "value": "~0.1", "unit": "% w/w"}, {"measurement": "Mass increase as the RH was increased to 95%", "setting": "[2]", "value": "~0.2", "unit": "% w/w"}, {"measurement": "Water uptake, water sorption/desorption isotherms", "setting": "[2]", "value": "< 0.2", "unit": "wt-%"}, {"measurement": "DVS (hygroscopicity)", "setting": "[2]", "value": "non-hygroscopic"}, {"measurement": "DVS (hygroscopicity)", "setting": "[2]; listed as Free compound", "value": "Non hygroscopic"}, {"measurement": "DVS (hygroscopicity)", "setting": "[2]; listed as free Celastrol", "value": "Non-hygroscopic"}, {"measurement": "DVS (hygroscopicity)", "setting": "[2]; listed as free compound", "value": "non hygroscopic"}, {"measurement": "XRPD under temperature: impact / new crystalline phase", "setting": "[3]; listed as Free compound", "value": "=>No new crystalline phase until"}, {"measurement": "XRPD under temperature: impact / new crystalline phase", "setting": "[3]; listed as free Celastrol", "value": "no new crystalline phase until 100 °C"}, {"measurement": "XRPD under temperature: impact / new crystalline phase", "setting": "[3]; listed as free compound", "value": "No impact"}, {"measurement": "XRPD under relative humidity: impact / new crystalline phase", "setting": "[3]; listed as Free compound", "value": "=>No new crystalline phase from"}, {"measurement": "XRPD under relative humidity: impact / new crystalline phase", "setting": "[3]; listed as free Celastrol", "value": "no new crystalline phase from 10 to 90% RH"}, {"measurement": "XRPD under relative humidity: impact / new crystalline phase", "setting": "[3]; listed as free compound", "value": "physically stable under relative humidity; also recorded: No impact"}, {"measurement": "Physical stability under the conditions tested (temperature and RH)", "setting": "[3]; XRPD, 25-100° C. and 10-90% RH at 40° C., listed as free compound", "value": "physically stable"}]}
{"smiles": "CC1=C(O)C(=O)C=C2C1=CC=C1[C@@]2(C)CC[C@@]2(C)[C@@H]3C[C@](C)(C(=O)O)CC[C@]3(C)CC[C@]12C", "note": "[Compound 2]", "values": [{"measurement": "Solubility in water at 37° C.", "setting": "[1]", "value": "< 1500", "unit": "µg/mL"}, {"measurement": "Solubility in water at 37° C.", "setting": "[1]; listed as Trometamol salt", "value": "(s < 1.5 g/L)"}, {"measurement": "Hysteresis with the final mass at 50% RH", "setting": "[2]", "value": "~3", "unit": "% w/w"}, {"measurement": "Mass decrease as the RH was lowered to 0%", "setting": "[2]", "value": "~3.8", "unit": "% w/w"}, {"measurement": "Mass increase as the RH was increased to 95%", "setting": "[2]", "value": 11, "unit": "% w/w"}, {"measurement": "Water uptake, water sorption/desorption isotherms", "setting": "[2]", "value": "2 ˜15 % w/w"}, {"measurement": "DVS (hygroscopicity)", "setting": "[2]", "value": "hygropscopic"}, {"measurement": "DVS (hygroscopicity)", "setting": "[2]; listed as Trometamol salt", "value": "Hygroscopic"}, {"measurement": "XRPD under temperature: impact / new crystalline phase", "setting": "[3]", "value": "No impact of temperature"}, {"measurement": "XRPD under temperature: impact / new crystalline phase", "setting": "[3]; listed as Trometamol salt", "value": "=>No new crystalline phase until 100 °C"}, {"measurement": "XRPD under relative humidity: impact / new crystalline phase", "setting": "[3]", "value": "formation of a new crystalline pattern"}, {"measurement": "XRPD under relative humidity: impact / new crystalline phase", "setting": "[3]; listed as Trometamol salt", "value": "less stable physically under relative humidity; also recorded: =>New crystaline phase from 80% RH"}]}
{"smiles": "NCCCC[C@H](N)C(=O)O", "note": "[L-Lysine]", "values": [{"measurement": "pKa (A)", "setting": "[4]; acid function", "value": 2.16}, {"measurement": "pKa (B)", "setting": "[4]", "value": 9.18}]}
{"smiles": "NC(CO)(CO)CO", "note": "[trometamol, tris(hydroxymethyl)aminomethane]", "values": [{"measurement": "pKa (B)", "setting": "[4]", "value": 8.2}]}
